Experimental data published in the kinase profiling compilation of Christmann-Franck et al. (2016).

Legend:
Assay in all cases: radiometric filter-binding kinase assay, Kinase HotSpot
Details in all cases: compound 0.5 µM; ATP 10 µM
ADRBK2 (human) = ADRBK2 (human) (UniProt P35626)
CAMK1G (human) = CAMK1G (human) (UniProt Q96NX5)
CAMK2D (human) = CAMK2D (human) (UniProt Q13557)
CAMK2G (human) = CAMK2G (human) (UniProt Q13555)
CDC42BPA (human) = CDC42BPA (human) (UniProt Q5VT25)
CSNK1G3 (human) = CSNK1G3 (human) (UniProt Q9Y6M4)
DYRK2 (human) = DYRK2 (human) (UniProt Q92630)
EPHA2 (human) = EPHA2 (human) (UniProt P29317)
EPHA3 (human) = EPHA3 (human) (UniProt P29320)
EPHB1 (human) = EPHB1 (human) (UniProt P54762)
FGFR2 (human) = FGFR2 (human) (UniProt P21802)
GRK5 (human) = GRK5 (human) (UniProt P34947)
HIPK3 (human) = HIPK3 (human) (UniProt Q9H422)
IRAK1 (human) = IRAK1 (human) (UniProt P51617)
IRAK4 (human) = IRAK4 (human) (UniProt Q9NWZ3)
MAPK11 (human) = MAPK11 (human) (UniProt Q15759)
MARK2 (human) = MARK2 (human) (UniProt Q7KZI7)
MELK (human) = MELK (human) (UniProt Q14680)
MLTK (human) = MLTK (human) (UniProt Q9NYL2)
MUSK (human) = MUSK (human) (UniProt O15146)
NEK2 (human) = NEK2 (human) (UniProt P51955)
NEK3 (human) = NEK3 (human) (UniProt P51956)
NEK9 (human) = NEK9 (human) (UniProt Q8TD19)
NUAK1 (human) = NUAK1 (human) (UniProt O60285)
NUAK2 (human) = NUAK2 (human) (UniProt Q9H093)
PAK4 (human) = PAK4 (human) (UniProt O96013)
PAK7 (human) = PAK7 (human) (UniProt Q9P286)
PASK (human) = PASK (human) (UniProt Q96RG2)
PDGFRA (human) = PDGFRA (human) (UniProt P16234)
PNCK (human) = PNCK (human) (UniProt Q6P2M8)
PRKD2 (human) = PRKD2 (human) (UniProt Q9BZL6)
ROCK2 (human) = ROCK2 (human) (UniProt O75116)
ROS1 (human) = ROS1 (human) (UniProt P08922)
RPS6KA1 KD1 KD2 (human) = RPS6KA1 KD1 KD2 (human) (UniProt Q15418)
RPS6KA3 KD1 KD2 (human) = RPS6KA3 KD1 KD2 (human) (UniProt P51812)
RPS6KA6 KD1 KD2 (human) = RPS6KA6 KD1 KD2 (human) (UniProt Q9UK32)
SRMS (human) = SRMS (human) (UniProt Q9H3Y6)
STK17A (human) = STK17A (human) (UniProt Q9UEE5)
STK39 (human) = STK39 (human) (UniProt Q9UEW8)
TAOK3 (human) = TAOK3 (human) (UniProt Q9H2K8)
VRK1 (human) = VRK1 (human) (UniProt Q99986)
ZAP70 (human) = ZAP70 (human) (UniProt P43403)

Chain of RPS6KA6 KD1 KD2 (human) (Q9UK32 whole entry, looked up): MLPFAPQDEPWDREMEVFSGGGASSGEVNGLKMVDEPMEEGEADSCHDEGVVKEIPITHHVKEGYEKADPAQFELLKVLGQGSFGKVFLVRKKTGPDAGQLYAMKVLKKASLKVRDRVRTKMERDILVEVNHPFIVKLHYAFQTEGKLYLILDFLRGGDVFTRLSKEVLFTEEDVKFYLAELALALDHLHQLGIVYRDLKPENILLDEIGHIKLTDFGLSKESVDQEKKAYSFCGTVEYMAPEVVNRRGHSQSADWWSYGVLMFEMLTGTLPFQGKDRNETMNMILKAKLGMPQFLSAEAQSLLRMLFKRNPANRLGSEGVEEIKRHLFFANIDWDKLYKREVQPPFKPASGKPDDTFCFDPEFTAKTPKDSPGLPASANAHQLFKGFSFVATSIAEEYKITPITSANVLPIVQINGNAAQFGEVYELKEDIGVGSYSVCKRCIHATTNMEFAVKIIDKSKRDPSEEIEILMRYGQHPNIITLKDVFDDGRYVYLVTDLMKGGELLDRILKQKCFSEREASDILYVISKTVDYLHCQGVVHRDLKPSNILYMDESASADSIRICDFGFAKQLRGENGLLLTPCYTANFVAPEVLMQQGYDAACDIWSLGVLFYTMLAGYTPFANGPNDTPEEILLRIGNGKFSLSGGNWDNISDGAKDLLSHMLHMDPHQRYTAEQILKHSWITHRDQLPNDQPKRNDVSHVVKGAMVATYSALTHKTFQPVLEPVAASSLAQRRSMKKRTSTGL
Chain of EPHB1 (human) (P54762 whole entry, looked up): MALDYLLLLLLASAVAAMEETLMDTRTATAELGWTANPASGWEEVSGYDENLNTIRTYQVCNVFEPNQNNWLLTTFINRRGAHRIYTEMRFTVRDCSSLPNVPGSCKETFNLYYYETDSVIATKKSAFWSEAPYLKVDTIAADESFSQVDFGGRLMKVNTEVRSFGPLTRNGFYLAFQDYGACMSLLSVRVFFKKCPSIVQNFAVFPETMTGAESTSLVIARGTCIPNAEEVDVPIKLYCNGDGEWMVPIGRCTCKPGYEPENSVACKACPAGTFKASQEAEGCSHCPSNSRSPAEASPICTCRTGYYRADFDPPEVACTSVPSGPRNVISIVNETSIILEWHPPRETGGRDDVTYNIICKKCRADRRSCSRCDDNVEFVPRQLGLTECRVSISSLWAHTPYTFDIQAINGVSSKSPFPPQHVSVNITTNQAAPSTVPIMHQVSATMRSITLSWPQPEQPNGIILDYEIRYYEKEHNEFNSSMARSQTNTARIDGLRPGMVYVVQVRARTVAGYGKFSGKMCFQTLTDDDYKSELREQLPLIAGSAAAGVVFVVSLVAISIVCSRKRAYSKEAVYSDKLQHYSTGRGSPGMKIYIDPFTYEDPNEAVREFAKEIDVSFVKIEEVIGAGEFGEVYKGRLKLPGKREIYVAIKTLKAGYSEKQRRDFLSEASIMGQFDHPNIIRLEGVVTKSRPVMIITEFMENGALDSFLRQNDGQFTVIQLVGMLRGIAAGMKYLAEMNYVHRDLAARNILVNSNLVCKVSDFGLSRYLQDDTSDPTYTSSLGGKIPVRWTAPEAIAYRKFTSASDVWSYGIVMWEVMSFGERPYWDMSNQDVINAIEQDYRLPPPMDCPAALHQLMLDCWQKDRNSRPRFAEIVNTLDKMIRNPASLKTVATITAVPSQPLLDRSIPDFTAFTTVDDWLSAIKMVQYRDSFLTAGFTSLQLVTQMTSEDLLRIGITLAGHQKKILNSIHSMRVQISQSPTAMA
Chain of CAMK2G (human) (Q13555 whole entry, looked up): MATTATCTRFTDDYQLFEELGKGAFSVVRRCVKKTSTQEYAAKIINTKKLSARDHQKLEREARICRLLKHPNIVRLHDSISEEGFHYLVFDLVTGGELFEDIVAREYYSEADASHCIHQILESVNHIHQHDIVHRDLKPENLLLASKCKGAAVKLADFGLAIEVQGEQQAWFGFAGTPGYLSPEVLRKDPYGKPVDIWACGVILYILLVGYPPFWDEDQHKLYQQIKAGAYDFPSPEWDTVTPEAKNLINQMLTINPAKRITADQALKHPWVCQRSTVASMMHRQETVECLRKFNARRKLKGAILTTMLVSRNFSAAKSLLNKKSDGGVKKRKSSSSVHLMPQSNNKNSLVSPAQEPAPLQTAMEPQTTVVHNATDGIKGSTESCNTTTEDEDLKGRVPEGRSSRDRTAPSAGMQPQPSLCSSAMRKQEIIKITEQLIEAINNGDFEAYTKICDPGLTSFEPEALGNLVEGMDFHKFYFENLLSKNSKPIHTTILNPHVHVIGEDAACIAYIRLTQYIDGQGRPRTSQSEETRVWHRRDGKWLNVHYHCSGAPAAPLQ
Chain of NEK2 (human) (P51955 whole entry, looked up): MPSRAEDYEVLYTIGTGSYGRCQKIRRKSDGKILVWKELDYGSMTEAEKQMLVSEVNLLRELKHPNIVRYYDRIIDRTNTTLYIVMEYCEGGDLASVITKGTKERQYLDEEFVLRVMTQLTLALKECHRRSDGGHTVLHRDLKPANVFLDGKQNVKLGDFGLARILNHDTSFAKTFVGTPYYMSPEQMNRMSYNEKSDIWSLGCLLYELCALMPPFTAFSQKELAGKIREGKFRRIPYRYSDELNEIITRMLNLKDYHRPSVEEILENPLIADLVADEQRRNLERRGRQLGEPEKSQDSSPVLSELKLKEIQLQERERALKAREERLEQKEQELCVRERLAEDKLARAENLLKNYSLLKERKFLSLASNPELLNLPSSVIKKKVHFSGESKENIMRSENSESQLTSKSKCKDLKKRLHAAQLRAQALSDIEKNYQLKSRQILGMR
Chain of CSNK1G3 (human) (Q9Y6M4 whole entry, looked up): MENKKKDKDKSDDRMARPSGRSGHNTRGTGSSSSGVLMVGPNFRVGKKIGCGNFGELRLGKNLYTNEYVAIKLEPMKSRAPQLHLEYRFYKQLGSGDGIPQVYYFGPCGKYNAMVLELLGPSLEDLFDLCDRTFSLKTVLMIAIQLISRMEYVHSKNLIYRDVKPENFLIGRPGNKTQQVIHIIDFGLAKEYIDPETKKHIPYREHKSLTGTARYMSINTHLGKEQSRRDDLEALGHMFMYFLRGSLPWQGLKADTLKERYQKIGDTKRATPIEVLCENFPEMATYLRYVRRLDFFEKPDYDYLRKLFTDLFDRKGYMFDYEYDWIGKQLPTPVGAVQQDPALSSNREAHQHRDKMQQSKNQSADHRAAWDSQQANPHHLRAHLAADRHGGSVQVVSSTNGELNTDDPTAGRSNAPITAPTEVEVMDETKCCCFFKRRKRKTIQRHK
Chain of GRK5 (human) (P34947 whole entry, looked up): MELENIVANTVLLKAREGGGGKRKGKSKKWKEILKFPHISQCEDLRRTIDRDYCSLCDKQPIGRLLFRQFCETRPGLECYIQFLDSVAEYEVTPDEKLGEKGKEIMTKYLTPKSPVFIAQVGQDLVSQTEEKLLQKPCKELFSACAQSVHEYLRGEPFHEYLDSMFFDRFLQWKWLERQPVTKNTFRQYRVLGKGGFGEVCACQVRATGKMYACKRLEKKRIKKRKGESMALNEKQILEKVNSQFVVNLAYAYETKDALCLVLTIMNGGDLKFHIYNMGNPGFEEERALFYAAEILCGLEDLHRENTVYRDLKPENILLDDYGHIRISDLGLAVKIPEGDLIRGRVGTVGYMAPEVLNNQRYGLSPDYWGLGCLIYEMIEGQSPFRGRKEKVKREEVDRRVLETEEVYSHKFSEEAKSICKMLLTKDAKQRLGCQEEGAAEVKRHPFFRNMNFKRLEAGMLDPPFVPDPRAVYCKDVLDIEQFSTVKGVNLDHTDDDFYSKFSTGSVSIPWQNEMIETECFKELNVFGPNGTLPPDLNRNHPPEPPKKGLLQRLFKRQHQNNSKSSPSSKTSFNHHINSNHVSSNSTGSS
Chain of HIPK3 (human) (Q9H422 whole entry, looked up): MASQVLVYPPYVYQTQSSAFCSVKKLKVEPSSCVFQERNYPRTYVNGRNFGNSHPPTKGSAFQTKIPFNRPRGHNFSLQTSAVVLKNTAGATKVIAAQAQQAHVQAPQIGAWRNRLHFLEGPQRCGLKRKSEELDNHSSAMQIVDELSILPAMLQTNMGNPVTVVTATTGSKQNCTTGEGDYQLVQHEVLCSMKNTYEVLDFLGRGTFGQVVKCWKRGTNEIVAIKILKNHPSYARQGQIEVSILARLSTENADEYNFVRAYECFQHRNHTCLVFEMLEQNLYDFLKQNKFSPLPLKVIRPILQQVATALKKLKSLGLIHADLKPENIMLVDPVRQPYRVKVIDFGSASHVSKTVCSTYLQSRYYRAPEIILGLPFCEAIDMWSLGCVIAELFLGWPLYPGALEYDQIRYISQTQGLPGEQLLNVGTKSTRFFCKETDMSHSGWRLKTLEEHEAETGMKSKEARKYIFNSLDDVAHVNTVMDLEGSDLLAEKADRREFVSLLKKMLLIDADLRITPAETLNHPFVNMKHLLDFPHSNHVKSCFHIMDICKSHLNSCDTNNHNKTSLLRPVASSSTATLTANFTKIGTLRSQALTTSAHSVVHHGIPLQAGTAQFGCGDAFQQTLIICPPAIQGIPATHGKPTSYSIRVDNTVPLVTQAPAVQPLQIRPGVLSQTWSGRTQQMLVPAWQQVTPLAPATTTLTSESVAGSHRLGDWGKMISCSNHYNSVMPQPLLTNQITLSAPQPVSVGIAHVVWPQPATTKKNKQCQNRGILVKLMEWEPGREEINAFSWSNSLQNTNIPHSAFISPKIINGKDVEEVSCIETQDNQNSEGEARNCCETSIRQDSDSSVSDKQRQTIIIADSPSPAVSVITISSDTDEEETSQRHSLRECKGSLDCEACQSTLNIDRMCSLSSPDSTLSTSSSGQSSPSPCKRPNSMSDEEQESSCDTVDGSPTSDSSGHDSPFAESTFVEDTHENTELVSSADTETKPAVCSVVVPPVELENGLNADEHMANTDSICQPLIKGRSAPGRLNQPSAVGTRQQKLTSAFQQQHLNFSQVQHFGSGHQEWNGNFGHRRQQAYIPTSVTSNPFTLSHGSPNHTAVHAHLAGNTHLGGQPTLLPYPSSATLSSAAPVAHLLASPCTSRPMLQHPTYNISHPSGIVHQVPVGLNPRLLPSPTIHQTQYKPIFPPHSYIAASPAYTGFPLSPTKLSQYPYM

Compound CCCCc1c(-c2ccc(O)cc2)[nH]c2nccnc12 has a residual activity (ADRBK2 (human)) of 96.2%, a residual activity (CAMK1G (human)) of 104% and a residual activity (CAMK2D (human)) of 87.3%. It also gave a residual activity (CAMK2G (human)) of 101%, a residual activity (CDC42BPA (human)) of 99.3% and a residual activity (CSNK1G3 (human)) of 82.3%. For the same compound, the residual activity (DYRK2 (human)) was 93.1%, the residual activity (EPHA2 (human)) was 81.7% and the residual activity (EPHA3 (human)) was 95%. The residual activity (EPHB1 (human)) was 78%, the residual activity (FGFR2 (human)) was 94.5% and the residual activity (GRK5 (human)) was 104%. The residual activity (HIPK3 (human)) was 100%, the residual activity (IRAK1 (human)) was 63.4% and the residual activity (IRAK4 (human)) was 159%. For the same compound, the residual activity (MAPK11 (human)) was 103%, the residual activity (MARK2 (human)) was 76.1% and the residual activity (MELK (human)) was 82.5%. The residual activity (MLTK (human)) was 71%, the residual activity (MUSK (human)) was 82% and the residual activity (NEK2 (human)) was 106%. It also gave a residual activity (NEK3 (human)) of 103%, a residual activity (NEK9 (human)) of 105% and a residual activity (NUAK1 (human)) of 19.1%. For the same compound, the residual activity (NUAK2 (human)) was 64.8%, the residual activity (PAK4 (human)) was 108% and the residual activity (PAK7 (human)) was 82.9%. For the same compound, the residual activity (PASK (human)) was 99.5%, the residual activity (PDGFRA (human)) was 95.1% and the residual activity (PNCK (human)) was 109%. It also gave a residual activity (PRKD2 (human)) of 95.3%, a residual activity (ROCK2 (human)) of 97.5% and a residual activity (ROS1 (human)) of 26.3%. It also gave a residual activity (RPS6KA1 KD1 KD2 (human)) of 82.6%, a residual activity (RPS6KA3 KD1 KD2 (human)) of 90.8% and a residual activity (RPS6KA6 KD1 KD2 (human)) of 72.7%. It also gave a residual activity (SRMS (human)) of 95.4%, a residual activity (STK17A (human)) of 84.9% and a residual activity (STK39 (human)) of 76.1%. The residual activity (TAOK3 (human)) was 82.5%, the residual activity (VRK1 (human)) was 87.9% and the residual activity (ZAP70 (human)) was 94.4%.
With O=S(=O)(NCCNC/C=C/c1ccc(Br)cc1)c1cccc2cnccc12 the residual activity (ADRBK2 (human)) was 101%, the residual activity (CAMK1G (human)) was 99.1% and the residual activity (CAMK2D (human)) was 97.1%. For the same compound, the residual activity (CAMK2G (human)) was 98.7%, the residual activity (CDC42BPA (human)) was 97.5% and the residual activity (CSNK1G3 (human)) was 93.3%. The residual activity (DYRK2 (human)) was 95.2%, the residual activity (EPHA2 (human)) was 101% and the residual activity (EPHA3 (human)) was 109%. The residual activity (EPHB1 (human)) was 106%, the residual activity (FGFR2 (human)) was 95.1% and the residual activity (GRK5 (human)) was 127%. It also gave a residual activity (HIPK3 (human)) of 81.7%, a residual activity (IRAK1 (human)) of 95.7% and a residual activity (IRAK4 (human)) of 110%. The residual activity (MAPK11 (human)) was 87.2%, the residual activity (MARK2 (human)) was 89.3% and the residual activity (MELK (human)) was 75.1%. For the same compound, the residual activity (MLTK (human)) was 105%, the residual activity (MUSK (human)) was 80.7% and the residual activity (NEK2 (human)) was 97.1%. The residual activity (NEK3 (human)) was 94.4%, the residual activity (NEK9 (human)) was 99.3% and the residual activity (NUAK1 (human)) was 32.8%. It also gave a residual activity (NUAK2 (human)) of 78.1%, a residual activity (PAK4 (human)) of 98.9% and a residual activity (PAK7 (human)) of 91.4%. For the same compound, the residual activity (PASK (human)) was 94.5%, the residual activity (PDGFRA (human)) was 98.8% and the residual activity (PNCK (human)) was 100%. It also gave a residual activity (PRKD2 (human)) of 75.9%, a residual activity (ROCK2 (human)) of 15.4% and a residual activity (ROS1 (human)) of 99.6%. It also gave a residual activity (RPS6KA1 KD1 KD2 (human)) of 68.4%, a residual activity (RPS6KA3 KD1 KD2 (human)) of 70.9% and a residual activity (RPS6KA6 KD1 KD2 (human)) of 71.8%. It also gave a residual activity (SRMS (human)) of 97.8%, a residual activity (STK17A (human)) of 100% and a residual activity (STK39 (human)) of 103%. For the same compound, the residual activity (TAOK3 (human)) was 95.4%, the residual activity (VRK1 (human)) was 80.1% and the residual activity (ZAP70 (human)) was 97.9%.
Compound O=C(O)c1ccc2c3c1cccc3c(=O)n1c3ccccc3nc21 has a residual activity (ADRBK2 (human)) of 103%, a residual activity (CAMK1G (human)) of 99% and a residual activity (CAMK2D (human)) of 93.6%. For the same compound, the residual activity (CAMK2G (human)) was 96.5%, the residual activity (CDC42BPA (human)) was 96.1% and the residual activity (CSNK1G3 (human)) was 96.9%. The residual activity (DYRK2 (human)) was 50.7%, the residual activity (EPHA2 (human)) was 102% and the residual activity (EPHA3 (human)) was 104%. It also gave a residual activity (EPHB1 (human)) of 97.5%, a residual activity (FGFR2 (human)) of 100% and a residual activity (GRK5 (human)) of 97.1%. The residual activity (HIPK3 (human)) was 103%, the residual activity (IRAK1 (human)) was 61.1% and the residual activity (IRAK4 (human)) was 107%. It also gave a residual activity (MAPK11 (human)) of 105%, a residual activity (MARK2 (human)) of 87.7% and a residual activity (MELK (human)) of 97%. It also gave a residual activity (MLTK (human)) of 100%, a residual activity (MUSK (human)) of 47.1% and a residual activity (NEK2 (human)) of 109%. For the same compound, the residual activity (NEK3 (human)) was 91.8%, the residual activity (NEK9 (human)) was 94.1% and the residual activity (NUAK1 (human)) was 41.3%. For the same compound, the residual activity (NUAK2 (human)) was 122%, the residual activity (PAK4 (human)) was 114% and the residual activity (PAK7 (human)) was 98.7%. The residual activity (PASK (human)) was 106%, the residual activity (PDGFRA (human)) was 94.4% and the residual activity (PNCK (human)) was 101%. For the same compound, the residual activity (PRKD2 (human)) was 86.8%, the residual activity (ROCK2 (human)) was 99% and the residual activity (ROS1 (human)) was 95.2%. The residual activity (RPS6KA1 KD1 KD2 (human)) was 101%, the residual activity (RPS6KA3 KD1 KD2 (human)) was 95.5% and the residual activity (RPS6KA6 KD1 KD2 (human)) was 101%. The residual activity (SRMS (human)) was 106%, the residual activity (STK17A (human)) was 73.4% and the residual activity (STK39 (human)) was 102%. For the same compound, the residual activity (TAOK3 (human)) was 93.1%, the residual activity (VRK1 (human)) was 103% and the residual activity (ZAP70 (human)) was 119%.
